From ChEMBL document CHEMBL1201862, “PubChem BioAssay data set” (2004)
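Five concentrations, 48 hours, 96-well plates. Abbreviation: GI50, concentration required for 50% inhibition of growth.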 Active and inactive are the calls of the source. Cut-off read from the data, not from the text of the source: active = GI50 up to about 1.1 µM and inactive = higher.

Legend:
Assay in all cases: NCI anticancer screen, dose series, 48 h
A498 = system: A498
A549 = system: A549
HCC 2998 = system: HCC 2998
HCT-116 = system: HCT-116
KM12 = system: KM12
LOX IMVI = system: LOX IMVI
MCF7 = system: MCF7
MDA-MB-231 = system: MDA-MB-231
Malme-3M = system: Malme-3M
OVCAR-5 = system: OVCAR-5
RPMI-8226 = system: RPMI-8226
SF-539 = system: SF-539
SK-MEL-28 = system: SK-MEL-28
TK-10 = system: TK-10
U-251 = system: U-251
UACC-257 = system: UACC-257
SK-MEL-2 = system: SK-MEL-2
SK-OV-3 = system: SK-OV-3
NCI-H522 = system: NCI-H522

Measured: GI50

CC(=O)Nc1ccc(Nc2cc(O)nc(O)n2)cc1
inactive: A498 > 100 µM | A549 > 100 µM | HCC 2998 > 100 µM | HCT-116 > 100 µM | KM12 > 100 µM | LOX IMVI > 100 µM | MCF7 > 100 µM | MDA-MB-231 > 100 µM | Malme-3M > 100 µM | OVCAR-5 > 100 µM | RPMI-8226 > 100 µM | SF-539 > 100 µM | SK-MEL-28 > 100 µM | TK-10 > 100 µM | U-251 > 100 µM | UACC-257 > 100 µM

CN1CCC(O)(C(C)(C)C)CC1
inactive: A549 > 100 µM | HCC 2998 > 100 µM | HCT-116 > 100 µM | KM12 > 100 µM | LOX IMVI > 100 µM | MCF7 > 100 µM | MDA-MB-231 > 100 µM | Malme-3M > 100 µM | OVCAR-5 > 100 µM | RPMI-8226 > 100 µM | SK-MEL-28 > 100 µM | SK-MEL-2 > 100 µM | SK-OV-3 > 100 µM | TK-10 > 100 µM | U-251 > 100 µM | UACC-257 > 100 µM

FC(F)(F)c1cc(Cl)cnc1N/N=C(/c1ccccc1)c1ccccn1
inactive: A549 3.03 µM | HCC 2998 8 µM | HCT-116 3.16 µM | KM12 1.85 µM | MCF7 3.13 µM | MDA-MB-231 4.09 µM | NCI-H522 1.57 µM | OVCAR-5 2 µM | RPMI-8226 4.11 µM | SF-539 3.66 µM | SK-MEL-28 6.92 µM | SK-MEL-2 3.96 µM | SK-OV-3 2.49 µM | U-251 3.62 µM | UACC-257 3.04 µM

O=C(O)c1nc2cc(C(F)(F)F)ccc2nc1Nc1ccc(Cl)c(Cl)c1
inactive: A498 15.8 µM | A549 8.79 µM | HCT-116 9.23 µM | KM12 12.9 µM | LOX IMVI 17.3 µM | MCF7 23.8 µM | MDA-MB-231 20.7 µM | Malme-3M 20.1 µM | NCI-H522 15.8 µM | OVCAR-5 17.7 µM | RPMI-8226 6.78 µM | SF-539 11.4 µM | SK-MEL-2 2.96 µM | SK-OV-3 16.7 µM | TK-10 14.2 µM | U-251 10.3 µM | UACC-257 20.7 µM

O=C([O-])C[n+]1ccccc1.c1ccncc1
inactive: A498 > 100 µM | A549 > 100 µM | HCT-116 > 100 µM | KM12 > 100 µM | LOX IMVI > 100 µM | MCF7 > 100 µM | MDA-MB-231 > 100 µM | Malme-3M > 100 µM | NCI-H522 > 100 µM | OVCAR-5 > 100 µM | RPMI-8226 > 100 µM | SF-539 > 100 µM | SK-MEL-28 > 100 µM | SK-MEL-2 > 100 µM | SK-OV-3 > 100 µM | TK-10 > 100 µM | U-251 > 100 µM | UACC-257 > 100 µM

C=CC[C@H](O)[C@@](NC(=O)OCc1ccccc1)(Sc1ccc(C)cc1)C(F)(F)F
inactive: A498 65.3 µM | A549 27.7 µM | HCC 2998 > 100 µM | HCT-116 20.5 µM | KM12 25.8 µM | LOX IMVI 4.44 µM | MCF7 23.5 µM | MDA-MB-231 24.8 µM | Malme-3M 56.8 µM | NCI-H522 15.5 µM | OVCAR-5 28.3 µM | RPMI-8226 23.4 µM | SF-539 14.6 µM | SK-MEL-28 43.7 µM | SK-MEL-2 26.8 µM | TK-10 33.8 µM | U-251 14.5 µM | UACC-257 23.4 µM

O=C1C2Cc3c(n(C(=O)c4ccccc4)c4ccccc34)CC2C(=O)N1c1ccc(Nc2ccc(N3C(=O)C4Cc5c(n(C(=O)c6ccccc6)c6ccccc56)CC4C3=O)cc2)cc1 (centres undefined)
inactive: A498 > 100 µM | A549 > 100 µM | HCC 2998 > 100 µM | HCT-116 > 100 µM | KM12 > 100 µM | LOX IMVI > 100 µM | MCF7 > 100 µM | MDA-MB-231 24.3 µM | Malme-3M > 100 µM | NCI-H522 > 100 µM | OVCAR-5 > 100 µM | SK-MEL-28 > 100 µM | SK-OV-3 > 100 µM | TK-10 > 100 µM | U-251 > 100 µM | UACC-257 > 100 µM

CC(C)OC(=O)NNc1cccc(Cl)c1
inactive: A498 > 100 µM | A549 > 100 µM | HCC 2998 > 100 µM | HCT-116 > 100 µM | KM12 > 100 µM | LOX IMVI 65.8 µM | MCF7 > 100 µM | MDA-MB-231 > 100 µM | Malme-3M > 100 µM | OVCAR-5 > 100 µM | RPMI-8226 66.1 µM | SF-539 > 100 µM | SK-MEL-28 > 100 µM | SK-MEL-2 19.4 µM | SK-OV-3 > 100 µM | TK-10 > 100 µM | U-251 > 100 µM | UACC-257 > 100 µM
